Holding throughout (type): cell-based, human
Test [1] concerns hESC-derived EBs. Nature of the test: EB formation in presence or absence of nicotinamide: morphology, size, cell number. The note with it: for number of cells versus controls: comparable number of starting cells. The method, then:
(§1) Human ES cells were removed from the feeders by treatment with dispase (10 mg/ml; Gibco), and/or type IV collagenase (1 mg/ml; Gibco). The clusters of undifferentiated cells that were obtained were further triturated into smaller clumps within PBS. These clumps were cultured for various periods in suspension within bacteriological dishes precoated with 0.1% low melting temperature agarose in DMEM (Gibco), supplemented with 10-20% FCS (Biological Industries, Beit Haemek), 1 mM L-glutamine, 0.1 mM β-mercaptoethanol, 1% non-essential amino acid stock, 50 units/ml penicillin, 50 μg/ml streptomycin (all from Gibco Invitrogen Corporation products, USA) in the presence or absence of nicotinamide 10 mM (Sigma). In some experiments DMEM and FCS were replaced by 86% KO-DMEM and 14% KOSR or by Neurobasal medium supplemented by N2 (Gibco).

In test [2] the test system is hESC-derived EBs. Nature of the test: Immunocytochemical and RT-PCR analysis of EBs. The method, then: EBs that were developed 4 weeks in suspension culture in the presence and absence of nicotinamide (NA), were fixed in 4% paraformaldehyde at room temperature overnight. The EBs were then concentrated at the bottom of a centrifuge tube and embedded in agar. The agar blocks were dehydrated, and embedded in paraffin. 5-micron sections were immuno-stained with anti-human cytokeratin-8 and anti-α-fetoprotein (both at 1:50, monoclonal mouse IgG, DAKO). Primary antibody localization was performed using Picture™ plus kit (Zymed). For RT PCR analysis, total RNA was collected from EBs that were developed 4 weeks in suspension culture in the presence and absence of nicotinamide (NA). Total RNA was isolated using TRI REAGENT (Sigma) and converted into complementary cDNA with M-MLV reverse transcriptase (Promega). PCR was carried out using standard protocols with Taq DNA Polymerase (Promega). Amplification conditions were as follows: denaturation at 94° C. for 60 seconds, annealing at 55-60° C. for 60 seconds, and extension at 72° C. for 60 seconds. The number of cycles was 35 Primer sequences and lengths of amplified products were: […]

Test [3] has as its system hESC-derived EBs. Nature of the test: Neural precursor marker expression in EBs (FACS, indirect immunofluorescence). The method, then: (§2) EBs were dissociated into smaller clusters mechanically with/without the aid of trypsin (0.025%, 3 mM EDTA in PBS) digestion. The small clusters of cells were plated on poly-D-lysine (30-70 kDa, 10 μg/ml; Sigma, St. Louis, Mo.) and laminin-coated (4 μg/ml; Sigma) glass coverslips and cultured for additional 3-5 weeks in the culture medium used for suspension culture of EBs or neural spheres. Differentiated cells within the outgrowth were fixed with 4% paraformaldehyde for 20 minutes at room temperature. Cell membranes were permeabilized with 0.2% Triton X100 (Sigma) in PBS for 5 minutes for immunostaining with ant-intracellular markers antibodies. The cells were incubated with the following primary antibodies: anti β-tubulin III (mouse monoclonal IgG2b, 1:2000, Sigma), anti human alphafetoprotein (mouse monoclonal IgG2a, 1:200, Sigma), anti human muscle actin (mouse monoclonal IgG1, 1:10, Dako) and anti human desmin (mouse monoclonal IgG1,κ, 1:10, Dako), anti-Pax6 (Developmental Studies Hybridoma Bank; mouse monoclonal IgG1, 1:100), anti-MITF (Lab Vision Corporation, Fremont, Calif.; mouse IgG1, 1:50), anti-RPE65 (Novus Biologicals, Littleton, Colo.; mouse IgG1, 1:300), anti-Bestrophin (Novus Biologicals, Littleton, Colo.; mouse IgG1, 1:150), anti-ZO-1 (Zymed Laboratories Inc., South San Francisco, Calif.; rabbit polyclonal, 1:10) and anti-CRALBP (kindly provided by John C. Saari, University of Washington, Seattle; rabbit polyclonal, 1:100).

The test system of test [4] is hESC-derived EBs. Nature of the test: Differentiation towards RPE (pigmented) cells within EBs. As to the method: as §1
Differentiation into neural spheres was conducted according to the published protocol (Itsykson, P., et al. Derivation of neural precursors from human embryonic stem cells in the presence of noggin. Mol Cell Neurpsci 30, 24-36 (2005). Spheres were dissociated mechanically by trituration. Pigmented clusters of cells within EBs, differentiating 8-10 weeks were mechanically dissected by glass micropipettes or scalpel blades.
as §2

For test [5], the system named is hESC-derived EBs. Nature of the test: Gene expression profile of EBs by affymetrix gene arrays.
Test [6] relates to hESC. In words: hESC culture on dishes pre-coated with different matrices; FACS marker expression. The method, then:
Human embryonic fibroblasts derived from umbilical cord as described herein or foreskin fibroblasts were used as feeders. The feeders were plated in tissue culture dishes precoated with 1 μg/cm^2 human Fibronectin (BD Biosciences, Bedford, Mass.) or 100 μg/ml recombinant Gelatin (FibroGen, SF). Mitotic inactivation was carried out by incubating the feeders 2.5 hours with Mitomycin-C (Kyowa, Tokyo). KO DMEM (Gibco), X-Vivo 10 (Biowhittaker, Maryland), or Cellgro Stem Cell Growth Medium (CellGenix Freiburg, Germany) were used as the basic media. They were supplemented with TCH (1-2%; Protide Pharmaceuticals, St. Paul, Minn.) or Nutridoma-CS (2%; Roche, Germany) as serum substitutes. The media were supplemented with 2 mM glutamine (Hyclone, Utah) and non-essential amino acids (NEAA, 1%; Hyclone Utah). HESC were split weekly with Ca/Mg^++-free PBS supplemented with 0.05% EDTA.
FACS analysis of marker expression was performed on hESC after disaggregation using Ca/Mg^++-free PBS supplemented with 0.05% EDTA. The cells were then washed with FACS media consisting of PBS supplemented with 1% BSA and 0.05% sodium azide. The single cell suspension was stained with anti-SSEA4 (1:100, mouse monoclonal IgG3, Developmental Studies Hybridoma Bank (DHSB), Iowa City, Iowa), and anti-Tra-1-60 (1:20, monoclonal mouse IgM, gift from Prof. P. Andrews), anti-Tra-1-81 (1:100, monoclonal mouse IgM, Chemicon International), anti-human Oct 4 (mouse monoclonal IgG2b, 1:50, Santa Cruz), and anti-SSEA1 (1:100, Chemicon). Control hESC were stained with the respective isotype control antibodies. Primary antibodies were detected with a FITC-labeled goat anti-mouse Ig (1:100, Dako).

The test system of test [7] is hESC. Nature of the test: Suspension culture of hESC in NBN2 medium. The note with it: NBN2, in the presence of FGF2, 3 weeks. The method, then: In the course of the routine passaging procedure, HESC colonies were dissociated with 0.05% of EDTA for 7-10 min at 37°, or mechanically with the aid of collagenase IV (1 mg/ml, 120 min at 37°). Cell dissociation was promoted by gentle blowing of the medium with a 1 ml pipette tip towards the hESC colonies. The cells/cell-clusters were re-suspended in NBN2 medium (Neurobasal, N2 supplement 1:100, glutamine 2 mM, 50 units/ml penicillin, 50 μg/ml streptomycin) supplemented with bFGF 20 ng/ml, noggin 250 ng/ml, activin 25-50 ng/ml, fibronectin and laminin 5 ng/ml each, gelatin 0.001%. The suspension may be strained though 30-50 micron mesh to remove big clumps and transferred into tissue culture dishes (Costar®, Corning Inc., Corning, N.Y., USA) at a density of ˜0.7-1.2×10^6 cells/ml. Dead cells and their fragments were gradually removed during media refreshment and small transparent cell aggregates emerged from the 3rd-5th days of suspension culture. The cells proliferated as free-floating tiny clusters of 20-50 cells. Aggregation and overgrowth of clusters was prevented by their daily trituration with a 1000 μl pipettor tip. Alternatively, every 7 days clusters were dissociated with Ca/Mg-free PBS supplemented with 3 mM EDTA and 0.06% trypsin and the single cells were resuspended in fresh medium. […]

Where [8] appears, read: in the presence of NA, indirect immunofluorescence.
Setting [9] is: 4 weeks suspension culture, presence vs absence of NA.
Where [10] appears, read: Cellgro medium with 2% TCH, matrix coating.

Experimental findings from US9005965B2, “Stem cells culture systems” (Hadasit Medical Research Services & Development Limited, priority 2004, dated 2015) are described below.

Entries after “also recorded” stand apart in the source; their conditions may differ.

On to `NC(=O)c1cccnc1` [NA, nicotinamide], for which, in test [1] (EBs cultured in the presence of RA and NA), the “development of cystic structures in EBs” value was “infrequent; also recorded: blocked the effects of RA”. Moreover, the “morphology of differentiated cells within EBs” value in test [1] (NA 10 mM) is on record as “acquired the morphology of neural precursor cells”. For the same molecule, the “prolonged culture of EBs” value in test [1] (NA treatment) is 12 weeks. The “number of cells versus controls” value in test [1] (after 2 weeks) came out at 5.4 times. Further, in test [1] (after 4 weeks), the “number of cells versus controls” value is 33 times. Also, in test [1] (chemically-defined medium (NBN2), 2-5 weeks), the “formation of cystic structures within EBs” value is “not observed”. In addition, the “effect of RA on number of differentiated cells” value in test [1] (medium with RA supplemented with NA) is given as “blocked”. Moreover, the “size of EBs (maximal diameter) versus EBs without NA” value in test [1] (serum-free medium, two weeks of differentiation) turned out to be 1.7 times. In test [1] (serum-supplemented medium, NA 10 mM), the “formation of cystic structures within EBs” value is on record as “not formed; also recorded: not observed”. Also, the “expression of cytokeratin-8 within EBs” value in test [2] (4 weeks in the presence of NA, immunocytochemistry) is recorded as “not demonstrated; also recorded: only a few cells”. Further, the “expression of α-fetoprotein within EBs” value in test [2] (differentiation in the presence of NA, immunocytochemistry and RT-PCR) was “not detected; also recorded: suppressed; also recorded: only a few cells”. Also, the “percentage of cells expressing PSA-NCAM” value in test [3] (6 weeks in the presence of NA, FACS) is 85.5%. For the same molecule, in test [3] (setting [8]), the “percentage of cells expressing nestin” value came out at 58.3% and the “percentage of cells expressing β-tubulin III” value came out at 67.8%. Further, the “percentage of EBs that included clusters of pigmented cells” value (“percentage … of pigmented cells” below) in test [4] (5 weeks of differentiation in the presence of NA) is 34%. In addition, in test [4] (6 weeks of differentiation in the presence of NA), the “percentage … of pigmented cells” value turned out to be 59%. Moreover, the “percentage … of pigmented cells” value in test [4] (12 weeks of differentiation in the presence of NA) turned out to be 70%. Moreover, the “expression of the RPE markers RPE65 and MITF A” value in test [4] (Real Time PCR, 6 weeks, versus control EBs) is “significantly increased; also recorded: induction”. The “percentage of cells within the EBs that were pigmented” value in test [4] (after 6 weeks of differentiation) was determined as 9%. Further, in test [5] (setting [9]), the “number of genes down-regulated” value was determined as 630 genes, the “number of genes up- or down-regulated by at least two-fold” value is listed as 1072 genes and the “number of genes up-regulated” value was determined as 442 genes. For the same molecule, in test [5] (gene arrays, confirmed by RT PCR), the “expression of chordin-like-1 gene” value was “up-regulated”. Besides, in test [5] (gene arrays, 4 weeks), the “expression of LEFT A & B and PITX1” value is listed as “down regulated”; the “expression of Wnt signaling pathway genes (Wnt4, Wnt 2B, FZD1, FZD2, FZD3, FZD10)” value is given as “induced”; the “expression of ZIC1” value is given as “remarkably up-regulated”; the “expression of cytokeratins 7, 18, 19, 23” value is “suppressed”. In addition, in test [5] (gene arrays, 4 weeks), the “expression of α-fetoprotein and cytokeratin-8” value was “suppressed”.

For the molecule gelatin, in test [6] (setting [10]), the “percentage of SSEA-4+ cells” value is 97% and the “percentage of Tra-1-60+ cells” value is 92%. For the same molecule, the “percentage of SSEA-4+ hESC” value in test [6] (foreskin feeder layer, KO DMEM+KO SR, plates precoated with the matrix) turned out to be 91%.

B1: activin A: TGFβ superfamily factor, 25-50 ng/ml (protein, UniProt P08476 311-426, looked up)
Inhibin beta A chain: GLECDGKVNICCKKQFFVSFKDIGWNDWIIAPSGYHANYCEGECPSHIAGTSGSSLSFHSTVINHYRMRGHSPFANLKSCCVPTKLRPMSMLYYDDGQNIIKKDIQNMIVEECGCS
modifications: Inhibin beta A chain
notes: TGFβ superfamily factor, 25-50 ng/ml
On to B1, for which the “effect on differentiation of hESC in suspension” value in test [7] (FIG. 23A) is recorded as “prevented differentiation”.

B2: noggin: BMPs antagonist, 250 ng/ml (protein, UniProt Q13253 28-232, looked up)
Noggin: QHYLHIRPAPSDNLPLVDLIEHPDPIFDPKEKDLNETLLRSLLGGHYDPGFMATSPPEDRPGGGGGAAGGAEDLAELDQLLRQRPSGAMPSEIKGLEFSEGLAQGKKQRLSKKLRRKLQMWLWSQTFCPVLYAWNDLGSRFWPRYVKVGSCFSKRSCSVPEGMVCKPSKSVHLTVLRWRCQRRGGQRCGWIPIQYPIISECKCSC
Regarding B2, the “effect on survival/proliferation of hESC in suspension” value in test [7] (FIG. 23B) is reported as “could promote survival/proliferation”.
